Where “and” joins values, the source holds several entries; their conditions need not be identical. Equal entries are not always repeated.
System: KPC PDAC tumors
Test: Tumor weight at end point, KPC survival study
Format: in vivo, mouse
Conditions: Extended Data 5B; KPC tumours; individual animals
Source text: Treatment of KPC mice with gemcitabine led to a slowing of primary tumor progression, increasing survival from a median survival of 85 days in untreated mice to 125 days in gemcitabine-treated mice (P = 0.0005) (Fig. 4b,c, blue versus red). PXS-5505 as a monotherapy led to no changes in median survival compared to vehicle (85 versus 81 days) (Fig. 4c, blue versus green).
Extended Data Fig. 5 PXS-5505 in combination with gemcitabine in vivo. a. […] Signal is defined as the enzyme activity in the aorta, while noise is measured in the presence of a high concentration (300 µM) BAPN to abolish any lysyl oxidase family activity. […] Data presented as mean values +/− SD b. […] Data presented as mean values +/− SD. c. FITC-dextran (molecular weight: 10 kDa) signal quantification from KPC tumor end point from each treatment group (vehicle n = 3 biologically independent animals, PXS-5505 n = 5 biologically independent animals, Gem n = 5 biologically independent animals, PXS-5505 + Gem n = 5 biologically independent animals). 4 ROIs taken per mouse. P-values determined by Welchs t-test. […] Quantification of red birefringent (mature) collagen fibers from human PDXs at end point after 3 cycles of treatment, treated as indicated. […] P values determined by Welchs t-test. g. […] Quantification of green birefringent (nascent) collagen fibers from human PDXs at end point, treated as indicated. […]

| SMILES | Tumour weight at endpoint |
| --- | --- |
| Nc1ccn([C@@H]2O[C@H](CO)[C@@H](O)C2(F)F)c(=O)n1 [Gem, gemcitabine] | 0.28 grams and 0.51 grams and 0.6 grams and 0.69 grams and 0.41 grams and 0.462 grams and 0.3 grams and 0.26 grams and 0.37 grams and 1.42 grams and 0.75 grams and 0.63 grams and 1.2 grams and 0.7 grams and 0.4 grams |
| Cl.Cl.NC/C=C(\F)CS(=O)(=O)c1cccc2cccnc12.O [PXS-5505, (Z)-3-fluoro-4-(quinolin-8-ylsulfonyl)but-2-en-1-amine dihydrochloride monohydrate] | 0.55 grams and 0.54 grams and 0.19 grams and 0.83 grams and 0.33 grams and 1.18 grams and 0.43 grams and 0.96 grams and 1.94 grams and 0.78 grams and 1.16 grams and 1.34 grams and 0.68 grams and 0.3 grams and 1.3 grams and 0.5 grams and 0.8 grams |

From publication PMC10518255, “A first-in-class pan-lysyl oxidase inhibitor impairs stromal remodeling and enhances gemcitabine response and survival in pancreatic cancer” (Nature Cancer, 2023)
